Laboratory results reported in article PMC4306137, “The First Small-Molecule Inhibitors of Members of the Ribonuclease E Family” (Scientific Reports, 2015).
“And” between values parts separate entries of the source, which are not always exact repeats. Equal values may be shown once. “Also recorded” adds a separate entry of the source.

Assays:
E. coli RNase G = target: T1, E. coli RNase G (Escherichia coli, UniProt P0A9J0); assay: Discontinuous cleavage assay, E. coli RNase G; assay type: biochemical; settings: for IC50: E. coli enzyme, conditions as for RNase E, NI = no inhibition (up to 40 mM tested), read-out: Nominal IC50 RNase G; for Inhibition of the activity of RNase G (in words): E. coli RNase G
T1 construct: made in house
Procedure: The compounds were obtained from Maybridge and re-suspended in 100% DMSO. Discontinuous cleavage assays were done using a 3′ fluorescein-labelled, 5′-monophosphorylated version of BR13, a well-characterised substrate of RNase E, with the sequence 5′-[…]↓AUUUG[44]. E. coli NTH-RNase E was pre-incubated with and without the compounds at 37°C for 20 min before the addition of substrate in a buffer containing 25 mM Bis-Tris Propane (pH 8.3), 100 mM NaCl, 15 mM MgCl2, 0.1% Triton X-100, 1 mM DTT and 20% DMSO. The enzyme monomer and substrate concentrations at the start of the reaction were 0.5 and 62 nM, respectively. The inhibition assays with RNase G and RNase A (Sigma) were carried out as above. Reaction products were analysed by electrophoresis using a denaturing 15% polyacrylamide, sequencing-type gel. Detection was via a FLA-5100 scanner (Fuji). Substrate and product were quantified using AIDA software (Raytest Isotopenmessgerate GmbH). Initial rates of reaction at increasing compound concentrations were obtained by establishing the slope representing percentage product generated over time during the initial, linear phase of the reaction. IC50 values were calculated by plotting the percentage inhibition of initial rate against compound concentration.

E. coli NTH-RNase E [1] = target: T2, E. coli NTH-RNase E (Escherichia coli, UniProt P21513); assay: Discontinuous cleavage assay (pBR13-fl substrate), E. coli NTH-RNase E; assay type: biochemical; settings: for IC50: E. coli enzyme, pre-incubation 37°C 20 min, 20% DMSO, NI = no inhibition (up to 40 mM tested), read-out: Nominal IC50 RNase E; for Inhibition of catalysis by E. coli RNase E (in words): discontinuous cleavage assay, conditions used
Procedure: The compounds were obtained from Maybridge and re-suspended in 100% DMSO. […] E. coli NTH-RNase E was pre-incubated with and without the compounds at 37°C for 20 min before the addition of substrate in a buffer containing 25 mM Bis-Tris Propane (pH 8.3), 100 mM NaCl, 15 mM MgCl2, 0.1% Triton X-100, 1 mM DTT and 20% DMSO. The enzyme monomer and substrate concentrations at the start of the reaction were 0.5 and 62 nM, respectively. […] Reaction products were analysed by electrophoresis using a denaturing 15% polyacrylamide, sequencing-type gel. Detection was via a FLA-5100 scanner (Fuji). Substrate and product were quantified using AIDA software (Raytest Isotopenmessgerate GmbH). Initial rates of reaction at increasing compound concentrations were obtained by establishing the slope representing percentage product generated over time during the initial, linear phase of the reaction. IC50 values were calculated by plotting the percentage inhibition of initial rate against compound concentration.

E. coli NTH-RNase E [2] = target: T2, E. coli NTH-RNase E; assay: SPR binding to immobilized E. coli NTH-RNase E; settings: for SPR binding curve behaviour (specific or non-specific binding): E. coli NTH-RNase E, plateau at higher concentrations = specific; for Steady State KD value: apparent KD from SPR steady state fit, binding to E. coli RNase E, PBS with 5% DMSO; for Kd: read-out: Steady State KD value
Procedure: (§1) E. coli and M. tuberculosis RNase E were immobilized covalently using amine coupling to the surface of a Biacore CM5 sensor chip (GE Healthcare). Immobilization levels were approximately 1500 RUs. Assessment of compound binding were conducted by injecting varying compound concentrations in PBS containing 5% DMSO at flow rates of 30–90 μl/min for ~60 s over the reference and test flow cells. A Biacore T100 instrument was used and the data collected was reference and buffer subtracted prior to steady state analysis using data fitting functions provided in the Biacore T100 Evaluation Software.

M. tuberculosis RNase E [3] = target: T3, M. tuberculosis RNase E (Mycobacterium tuberculosis, UniProt P71905); assay: SPR binding to immobilized M. tuberculosis RNase E; settings: data not shown
Procedure: as §1

M. tuberculosis RNase E [4] = target: T3, M. tuberculosis RNase E; assay: Cleavage of pBR13-fl by M. tuberculosis RNase E; assay type: biochemical; settings: 5 mM compound; room temperature; 5% DMSO
Procedure: For M. tuberculosis RNase E (a kind gift from Prof. B. Luisi, University of Cambridge), 1 μM 3′ fluorescently-labelled, 5′ monophosphorylated BR13 was incubated with 50 nM RNase E with and without the compounds in buffer containing 25 mM Tris-HCl (pH 7.5), 100 mM NaCl, 15 mM MgCl2, 1 mM DTT and 5% DMSO at room temperature. Reactions were analysed by electrophoresis using denaturing 20% polyacrylamide gels and visualised using a UV transilluminator.

[5] = compounds at their E. coli RNase E IC50 concentration: 1.9 mM P10, 1.8 mM P11, 3.8 mM M5, combinations at the same concentrations, read-out: Initial rate normalised to 1 for the reaction containing no compound

T1 sequence (P0A9J0 whole entry): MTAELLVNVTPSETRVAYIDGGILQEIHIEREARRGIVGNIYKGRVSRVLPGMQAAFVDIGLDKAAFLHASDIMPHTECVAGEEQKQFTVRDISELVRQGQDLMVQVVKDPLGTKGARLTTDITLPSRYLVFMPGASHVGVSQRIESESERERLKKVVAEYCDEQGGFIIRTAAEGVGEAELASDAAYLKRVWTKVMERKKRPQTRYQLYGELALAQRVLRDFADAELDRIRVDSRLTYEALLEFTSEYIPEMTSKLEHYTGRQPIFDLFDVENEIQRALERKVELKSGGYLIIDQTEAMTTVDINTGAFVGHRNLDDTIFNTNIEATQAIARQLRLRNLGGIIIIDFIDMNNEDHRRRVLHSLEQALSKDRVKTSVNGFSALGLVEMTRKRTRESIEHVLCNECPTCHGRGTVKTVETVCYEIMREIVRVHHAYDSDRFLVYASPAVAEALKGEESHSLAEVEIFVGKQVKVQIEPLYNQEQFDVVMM
T3 sequence (P71905 whole entry): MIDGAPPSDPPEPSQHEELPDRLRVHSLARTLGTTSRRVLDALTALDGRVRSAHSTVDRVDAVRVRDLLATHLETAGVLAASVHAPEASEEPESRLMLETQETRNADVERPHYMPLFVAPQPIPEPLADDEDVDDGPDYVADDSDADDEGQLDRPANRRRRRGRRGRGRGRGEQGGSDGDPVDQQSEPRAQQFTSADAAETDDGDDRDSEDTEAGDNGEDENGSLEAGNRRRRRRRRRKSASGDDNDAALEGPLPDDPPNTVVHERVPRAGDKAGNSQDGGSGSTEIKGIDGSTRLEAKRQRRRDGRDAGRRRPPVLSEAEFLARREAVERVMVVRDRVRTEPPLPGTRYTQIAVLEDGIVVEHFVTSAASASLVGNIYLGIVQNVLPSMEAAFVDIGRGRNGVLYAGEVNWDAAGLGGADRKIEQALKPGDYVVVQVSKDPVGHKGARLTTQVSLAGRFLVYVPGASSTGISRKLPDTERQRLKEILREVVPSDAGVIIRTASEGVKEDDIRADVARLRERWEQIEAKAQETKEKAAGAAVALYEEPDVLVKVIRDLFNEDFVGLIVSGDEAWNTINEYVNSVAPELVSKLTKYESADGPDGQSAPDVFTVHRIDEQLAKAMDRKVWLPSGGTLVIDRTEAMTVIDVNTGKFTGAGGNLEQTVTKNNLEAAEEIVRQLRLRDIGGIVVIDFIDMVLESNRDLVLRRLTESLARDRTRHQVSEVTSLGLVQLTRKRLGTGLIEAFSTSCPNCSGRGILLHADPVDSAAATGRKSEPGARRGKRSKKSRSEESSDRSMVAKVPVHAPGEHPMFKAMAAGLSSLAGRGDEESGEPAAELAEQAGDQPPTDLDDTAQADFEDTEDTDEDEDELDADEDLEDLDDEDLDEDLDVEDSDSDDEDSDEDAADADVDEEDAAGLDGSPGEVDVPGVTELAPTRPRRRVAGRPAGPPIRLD
T2 sequence (P21513 1-529): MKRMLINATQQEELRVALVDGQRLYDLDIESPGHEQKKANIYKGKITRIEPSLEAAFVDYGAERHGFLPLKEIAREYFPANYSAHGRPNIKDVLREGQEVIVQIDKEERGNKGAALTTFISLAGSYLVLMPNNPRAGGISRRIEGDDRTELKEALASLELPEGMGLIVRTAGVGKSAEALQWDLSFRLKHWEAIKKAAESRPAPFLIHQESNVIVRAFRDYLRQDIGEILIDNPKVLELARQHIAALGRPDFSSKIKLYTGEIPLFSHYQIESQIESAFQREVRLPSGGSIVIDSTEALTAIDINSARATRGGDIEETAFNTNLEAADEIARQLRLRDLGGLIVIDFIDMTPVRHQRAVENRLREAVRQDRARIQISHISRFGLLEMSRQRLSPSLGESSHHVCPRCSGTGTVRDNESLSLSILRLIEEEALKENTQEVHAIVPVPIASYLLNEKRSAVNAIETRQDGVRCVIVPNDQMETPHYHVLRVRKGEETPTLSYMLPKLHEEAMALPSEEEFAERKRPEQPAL

SMILES	IC50 (E. coli RNase G)	IC50 (E. coli NTH-RNase E [1])	Inhibition of catalysis by E. coli RNase E (in words) (E. coli NTH-RNase E [1])	SPR binding curve behaviour (specific or non-specific binding) (E. coli NTH-RNase E [2])	Steady State KD value (E. coli NTH-RNase E [2])	Kd (E. coli NTH-RNase E [2])	SPR binding curves, M. tuberculosis RNase E (in words) (M. tuberculosis RNase E [3])	Inhibition of the activity of RNase G (in words) (E. coli RNase G)	activity at 3800 µM (E. coli NTH-RNase E [1]; [5])	Inhibition of M. tuberculosis RNase E (in words) (M. tuberculosis RNase E [4])	activity at 1900 µM (E. coli NTH-RNase E [1]; [5])	activity at 1800 µM (E. coli NTH-RNase E [1]; [5])
O=C1c2ccccc2NC(c2cc(Cl)cc(Cl)c2O)N1Cc1cccnc1 (centres unmarked) [M2]	> 40 mM	> 40 mM	did not inhibit RNase E	bind but at sites other than the intended target	non-specific	–	–	–	–	–	–	–
Cc1onc(-c2c(Cl)cccc2Cl)c1C(=O)N=S(C)(C)=O [M3]	> 40 mM	> 40 mM	–	consistent with targeting of specific sites	–	~0.6 mM	–	–	–	–	–	–
CCOC(=O)NC(=O)c1cn(Nc2ncc(Cl)cc2C(F)(F)F)c(=O)[nH]c1=O [M5]	3.3 mM and ~3.3 mM	3.8 mM and ~3.8 mM	clearly inhibited catalysis	consistent with targeting of specific sites; also recorded: specific binding	–	~3 mM	consistent with specific targeting	able to inhibit the activity of RNase G	42%	inhibits activity but appears to be less efficient	–	–
Cc1c(C(=O)NNc2cc(C(F)(F)F)ccc2Cl)n(C)oc1=O [M8]	–	~3.2 mM	clearly inhibited catalysis	consistent with targeting of specific sites	–	~3.5 mM	–	–	–	–	–	–
Cc1nnsc1-c1onc(C)c1C(=O)O/N=C/c1cccc(Cl)c1 [M9]	~24 mM	~18 mM	inhibited catalysis but much less efficiently	consistent with targeting of specific sites	–	~2 mM	–	able to inhibit the activity of RNase G	–	–	–	–
Cc1ccc(C)n1-c1nn(S(=O)(=O)c2cccc3nonc23)c2cccc(F)c12 [P6]	–	–	clearly inhibited catalysis	consistent with targeting of specific sites	–	–	–	able to inhibit the activity of RNase G	–	–	–	–
Cc1ccc(S(=O)(=O)NC(=O)N2CCCN(c3ncnc4scc(-c5ccccc5)c34)CC2)cc1 [P10]	2.4 mM and ~2.4 mM	1.9 mM and ~1.9 mM	inhibited RNase E	bind at sites other than the intended target; also recorded: non-specific binding	non-specific	–	–	able to inhibit the activity of RNase G	–	–	44%	–
Cc1ccc(S(=O)(=O)NC(=O)NCCSCc2c(C)cc(C)cc2C)cc1 [P11]	–	–	clearly inhibited catalysis	consistent with targeting of specific sites; also recorded: specific binding	–	–	consistent with specific targeting	able to inhibit the activity of RNase G	–	clear inhibition	–	62%
